Test results from US20240067637A1, “NAPHTHYRIDINE AND PYRIDO[3,4-c]PYRIDAZINE DERIVATIVES AS GABAA ALPHA 5 RECEPTOR MODULATORS” (Richter Gedeon Nyrt., priority 2020, published 2024).

Each compound was assayed against human recombinant GABAA α5β3γ2 receptor (Homo sapiens (Human), UniProt P18507+P31644) (assay: Radioligand ([3H]Ro151788) receptor binding assay). Settings: membranes of HEK cells expressing human recombinant GABAA α5β3γ2; 0.5 nM [3H]Ro151788; 60 minutes at 4° C.; read-out: hGABAA α5 Ki.
Chain of human recombinant GABAA α5β3γ2 receptor (P31644 32-462): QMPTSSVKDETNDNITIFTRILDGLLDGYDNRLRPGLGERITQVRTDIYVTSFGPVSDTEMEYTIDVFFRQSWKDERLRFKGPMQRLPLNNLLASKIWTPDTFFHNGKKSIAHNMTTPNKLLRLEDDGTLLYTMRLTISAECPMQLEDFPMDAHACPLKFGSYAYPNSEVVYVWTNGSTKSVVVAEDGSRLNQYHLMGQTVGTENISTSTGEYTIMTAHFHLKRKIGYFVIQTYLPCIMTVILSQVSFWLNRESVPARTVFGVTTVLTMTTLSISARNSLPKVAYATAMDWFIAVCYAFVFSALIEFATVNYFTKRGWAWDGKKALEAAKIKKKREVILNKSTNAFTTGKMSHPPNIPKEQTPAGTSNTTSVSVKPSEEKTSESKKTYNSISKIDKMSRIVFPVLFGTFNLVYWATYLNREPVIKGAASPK
Chain of human recombinant GABAA α5β3γ2 receptor (P28472 26-473 partner): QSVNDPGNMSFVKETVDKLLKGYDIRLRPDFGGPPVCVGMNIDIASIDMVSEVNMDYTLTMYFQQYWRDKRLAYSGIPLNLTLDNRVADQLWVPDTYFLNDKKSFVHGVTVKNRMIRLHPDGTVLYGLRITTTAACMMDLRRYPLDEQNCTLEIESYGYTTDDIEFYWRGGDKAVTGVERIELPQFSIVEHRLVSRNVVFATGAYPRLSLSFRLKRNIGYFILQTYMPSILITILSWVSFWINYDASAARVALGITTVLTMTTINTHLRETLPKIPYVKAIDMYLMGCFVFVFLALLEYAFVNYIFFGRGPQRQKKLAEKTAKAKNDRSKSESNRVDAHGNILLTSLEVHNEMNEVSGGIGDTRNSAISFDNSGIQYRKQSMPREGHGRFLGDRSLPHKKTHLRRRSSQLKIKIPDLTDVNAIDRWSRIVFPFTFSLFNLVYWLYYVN
Chain of human recombinant GABAA α5β3γ2 receptor (P18507 40-475): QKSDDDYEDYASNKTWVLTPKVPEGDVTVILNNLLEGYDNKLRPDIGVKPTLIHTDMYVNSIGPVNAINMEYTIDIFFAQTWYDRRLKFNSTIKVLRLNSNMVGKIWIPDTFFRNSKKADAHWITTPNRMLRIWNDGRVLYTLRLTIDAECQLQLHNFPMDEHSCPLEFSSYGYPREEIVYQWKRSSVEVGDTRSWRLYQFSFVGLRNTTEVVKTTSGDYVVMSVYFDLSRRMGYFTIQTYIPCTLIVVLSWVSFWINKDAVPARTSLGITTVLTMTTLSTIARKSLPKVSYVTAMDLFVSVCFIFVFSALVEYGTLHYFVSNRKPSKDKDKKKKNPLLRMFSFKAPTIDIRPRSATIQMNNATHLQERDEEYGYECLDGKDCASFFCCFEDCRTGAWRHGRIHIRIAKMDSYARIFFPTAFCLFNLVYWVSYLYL
Protocol: The GABAA α5β3γ2 protein used for the receptor binding assay was derived from membranes produced from HEK cells (Millipore CYL3073) expressing the human recombinant GABAA α5β3γ2 receptor. Cells were stored and cultured in-house according to the instructions provided by the vendor (Millipore). Cell pellet was homogenized in 10 times modified Krebs Henseleit buffer (membrane preparation buffer): 20 mM Tris, 120 mM NaCl, 100 mM KCl, 25 mM CaCl2 and 25 mM MgCl2 pH=7.4 at 4° C. using Ultra Turrax (Janke&Kunkel) maximal speed for 15 seconds. The homogenate was centrifuged at 40,000 g for 30 minutes at 4° C. Supernatant was discarded and the resulting pellet was washed in membrane preparation buffer. Pellet was resuspended in membrane preparation buffer and aliquots of 1.4 mL ampules were stored at −70° C. until use.
Receptor binding assays were performed in 96-well format in deep-well plates. For each 96-well plate one ampule of membrane homogenate was thawed and diluted in binding buffer (50 mM Tris pH=7.4, 100 mM KCl) and 200 μL was dispensed into each well. Radioligand [^3H]Ro151788 (Perkin Elmer: NET757250UC) was prepared in binding buffer and added to each well in 50 μL volume to give final concentration of 0.5 nM. Test compounds in suitable concentration(s) were added in additional 50 μL. The final assay volume was 300 μL. Incubation was carried out for 60 minutes at 4° C. For non-specific binding 10 μM unlabeled diazepam was used. After incubation samples were filtered over UniFilter® GF/BT using Filtermate Harvester (Perkin Elmer) and washed with 5×1 mL binding buffer. The plate was dried at 40° C. for an hour and 40 μL Microscint (Perkin Elmer) scintillation cocktail was added to each well. The plate was read in Microbeta (Perkin Elmer).
The specific radioligand binding (SB) was defined as the difference between total binding (Tot) and the non-specific binding (NSB). Results are expressed as a percent inhibition of specific binding obtained in the presence of compound of interest.
For IC50 and Ki determination a minimum of six drug concentrations in triplicate were used. IC50 values (i.e. concentration of compound giving 50% inhibition of specific binding) were calculated from concentration-displacement curves by sigmoidal fitting using Origin 7.5 software. Ki values (i.e. inhibition constants) were calculated using the Cheng-Prusoff equation Ki=IC50/[1+(L/KD)], where [L] is the radioligand concentration and KD the affinity of the labelled ligand for receptor. KD was determined from the Saturation analyses.
Work on `Cc1ccc(-c2nnn(C)c2COc2cc3c(cn2)CN(C(=O)CF)CC3)cn1` [Example 68, 2-fluoro-1-(6-{[1-methyl-4-(6-methylpyridin-3-yl)-1H-1,2,3-triazol-5-yl]methoxy}-1,2,3,4-tetrahydro-2,7-naphthyridin-2-yl)ethan-1-one] yielded a Ki of 9.1 nM. In the case of `Cc1ccc(-n2nnc(C)c2COc2cc3c(cn2)CN(C(=O)CF)CC3)cn1` [Example 38, 2-fluoro-1-(6-{[4-methyl-1-(6-methylpyridin-3-yl)-1H-1,2,3-triazol-5-yl]methoxy}-1,2,3,4-tetrahydro-2,7-naphthyridin-2-yl)ethan-1-one], the Ki is reported as 6.6 nM. `CCC(=O)N1CCc2cc(OCc3c(-c4ccc(C)nc4)nnn3C)ncc2C1` [Example 62, 1-(6-{[1-methyl-4-(6-methylpyridin-3-yl)-1H-1,2,3-triazol-5-yl]methoxy}-1,2,3,4-tetrahydro-2,7-naphthyridin-2-yl)propan-1-one] gave a Ki of 33 nM. In the case of `Cc1nnn(-c2ccc(C(F)(F)F)nc2)c1COc1cc2c(cn1)CN(C(=O)C(C)C)CC2` [Example 50, 2-methyl-1-[6-({4-methyl-1-[6-(trifluoromethyl)pyridin-3-yl]-1H-1,2,3-triazol-5-yl}methoxy)-1,2,3,4-tetrahydro-2,7-naphthyridin-2-yl]propan-1-one], the Ki is reported as 44 nM. Work on `Cc1nnn(-c2ccc(C(F)(F)F)nc2)c1COc1cc2c(cn1)CN(C(=O)CF)CC2` [Example 49, 2-fluoro-1-[6-({4-methyl-1-[6-(trifluoromethyl)pyridin-3-yl]-1H-1,2,3-triazol-5-yl}methoxy)-1,2,3,4-tetrahydro-2,7-naphthyridin-2-yl]ethan-1-one] yielded a Ki of 15 nM. Compound `Cc1ccc(-c2noc(C)c2COc2cc3c(nn2)CN(C(=O)NC2CC2)CC3)cn1` [Example 33, N-cyclopropyl-3-{[5-methyl-3-(6-methylpyridin-3-yl)-1,2-oxazol-4-yl]methoxy}-5H,6H,7H,8H-pyrido[3,4-c]pyridazine-7-carboxamide] has a Ki of 2.2 nM. For `Cc1ccc(-c2noc(C)c2COc2cc3c(cn2)CN(C(=O)C2CCOCC2)CC3)cn1` [Example 10, 6-{[5-methyl-3-(6-methylpyridin-3-yl)-1,2-oxazol-4-yl]methoxy}-2-(oxane-4-carbonyl)-1,2,3,4-tetrahydro-2,7-naphthyridine], the Ki was 17 nM. Compound `CCN1CC(C(=O)N2CCc3cc(OCc4c(-c5ccc(C)nc5)noc4C)ncc3C2)CC1=O` (stereo not drawn) [Example 23, 1-ethyl-4-(6-{[5-methyl-3-(6-methylpyridin-3-yl)-1,2-oxazol-4-yl]methoxy}-1,2,3,4-tetrahydro-2,7-naphthyridine-2-carbonyl)pyrrolidin-2-one] has a Ki of 6.9 nM. `CC(=O)N1CCc2cc(OCc3c(-c4ccc(C)nc4)nnn3C)ncc2C1` [Example 60, 1-(6-{[1-methyl-4-(6-methylpyridin-3-yl)-1H-1,2,3-triazol-5-yl]methoxy}-1,2,3,4-tetrahydro-2,7-naphthyridin-2-yl)ethan-1-one] was tested, and the Ki was 22 nM. For `CC(=O)N1CCc2cc(OCc3c(C)nnn3-c3ccc(C(F)F)nc3)ncc2C1` [Example 55, 1-[6-({1-[6-(difluoromethyl)pyridin-3-yl]-4-methyl-1H-1,2,3-triazol-5-yl}methoxy)-3,4 dihydro-2,7-naphthyridin-2(1H)-yl]ethanone], the Ki was 1.1 nM. For `Cc1ccc(-c2noc(C)c2COc2cc3c(nn2)CN(C(=O)CF)CC3)cn1` [Example 30, 2-fluoro-1-(3-{[5-methyl-3-(6-methylpyridin-3-yl)-1,2-oxazol-4-yl]methoxy}-5H,6H,7H,8H-pyrido[3,4-c]pyridazin-7-yl)ethan-1-one], the Ki was 1.9 nM. With `CC(=O)N1CCc2cc(OCc3c(C)nnn3-c3ccc(C)nc3)ncc2C1` [Example 37, 1-(6-{[4-methyl-1-(6-methylpyridin-3-yl)-1H-1,2,3-triazol-5-yl]methoxy}-1,2,3,4-tetrahydro-2,7-naphthyridin-2-yl)ethan-1-one] the Ki was 7.9 nM. Work on `CC(=O)N1CCc2cc(OCc3c(-c4ccc(C(F)(F)F)nc4)noc3C)ncc2C1` [Example 4, 1-[6-({5-methyl-3-[6-(trifluoromethyl)pyridin-3-yl]-1,2-oxazol-4-yl}methoxy)-3,4-dihydro-2,7-naphthyridin-2(1H)-yl]ethanone] yielded a Ki of 9.7 nM. For `Cc1ccc(-n2nnc(C)c2COc2cc3c(cn2)CN(C(=O)C2CC2)CC3)cn1` [Example 44, 2-cyclopropanecarbonyl-6-{[4-methyl-1-(6-methylpyridin-3-yl)-1H-1,2,3-triazol-5-yl]methoxy}-1,2,3,4-tetrahydro-2,7-naphthyridine], the Ki was 22 nM. With `Cc1ccc(-c2noc(C)c2COc2cc3c(cn2)CN(C(=O)C2CC(=O)N(C(C)C)C2)CC3)cn1` (stereo not drawn) [Example 16, 4-(6-{[5-methyl-3-(6-methylpyridin-3-yl)-1,2-oxazol-4-yl]methoxy}-1,2,3,4-tetrahydro-2,7-naphthyridine-2-carbonyl)-1-(propan-2-yl)pyrrolidin-2-one] the Ki was 11 nM. Compound `Cc1ccc(-c2noc(C)c2COc2cc3c(cn2)CN(C(=O)C2CCOC2)CC3)cn1` (stereo not drawn) [Example 12, 6-{[5-methyl-3-(6-methylpyridin-3-yl)-1,2-oxazol-4-yl]methoxy}-2-(oxolane-3-carbonyl)-1,2,3,4-tetrahydro-2,7-naphthyridine] has a Ki of 7.2 nM. `Cc1ccc(-n2nnc(C)c2COc2cc3c(cn2)CN(C(=O)C(C)C)CC3)cn1` [Example 39, 2-methyl-1-(6-{[4-methyl-1-(6-methylpyridin-3-yl)-1H-1,2,3-triazol-5-yl]methoxy}-1,2,3,4-tetrahydro-2,7-naphthyridin-2-yl)propan-1-one] gave a Ki of 30 nM. `Cc1ccc(-c2nnn(C)c2COc2cc3c(cn2)CN(C(=O)C(C)C)CC3)cn1` [Example 63, 2-methyl-1-(6-{[1-methyl-4-(6-methylpyridin-3-yl)-1H-1,2,3-triazol-5-yl]methoxy}-1,2,3,4-tetrahydro-2,7-naphthyridin-2-yl)propan-1-one] was tested, and the Ki was 43 nM.
